Tests used:
COX-2 = target: T1, COX-2 (Homo sapiens, UniProt P35354); experiment: Whole cell assay for COX-2 using CHO transfected cell line (CHO [hCOX-2]); assay type: cell-based; set-up: expressed in transfected cells; host or cells: Chinese hamster ovary (CHO) cells, stably transfected, CHO[hCOX-2]; settings: CHO[hCOX-2] cells, 10 μM AA; read-out: CHO Cox-2 (IC50, inhibition of PGE2 production)
T1 sequence (P35354 18-604): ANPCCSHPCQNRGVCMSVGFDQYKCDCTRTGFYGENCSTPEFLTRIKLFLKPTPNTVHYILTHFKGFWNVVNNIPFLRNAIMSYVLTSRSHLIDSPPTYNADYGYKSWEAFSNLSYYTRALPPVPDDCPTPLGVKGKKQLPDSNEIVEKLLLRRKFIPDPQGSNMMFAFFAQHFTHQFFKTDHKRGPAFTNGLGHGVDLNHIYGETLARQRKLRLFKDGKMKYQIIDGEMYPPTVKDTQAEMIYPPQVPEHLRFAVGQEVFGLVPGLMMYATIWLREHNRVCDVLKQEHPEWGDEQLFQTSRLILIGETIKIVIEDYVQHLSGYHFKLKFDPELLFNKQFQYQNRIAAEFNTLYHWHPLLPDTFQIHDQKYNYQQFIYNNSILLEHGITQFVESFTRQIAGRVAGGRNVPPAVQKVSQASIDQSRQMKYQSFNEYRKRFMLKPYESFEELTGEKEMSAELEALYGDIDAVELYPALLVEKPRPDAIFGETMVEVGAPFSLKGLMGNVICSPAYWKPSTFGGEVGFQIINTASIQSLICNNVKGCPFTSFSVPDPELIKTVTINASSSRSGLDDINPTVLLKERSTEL
Excerpt: Whole cell assays for COX-2 and COX-1 using CHO transfected cell lines
Chinese hamster ovary (CHO) cell lines which have been stably transfected with an eukaryotic expression vector pCDNAIII containing either the human COX-1 or COX-2 cDNA's are used for the assay. These cell lines are referred to as CHO [hCOX-1] and CHO [hCOX-2], respectively. For cyclooxygenase assays, CHO[hCOX-1] cells from suspension cultures and CHO[hCOX-2] cells prepared by trypsinization of adherent cultures are harvested by centrifugation (300 x g, 10 min) and washed once in HBSS containing 15 mM HEPES, pH 7.4, and resuspended in HBSS, 15 mM HEPES, pH 7.4, at a cell concentration of 1.5×10^6 cells/ml. Drugs to be tested are dissolved in DMSO to 66.7-fold the highest test drug concentration. Compounds are typically tested at 8 concentrations in duplicate using serial 3-fold serial dilutions in DMSO of the highest drug concentration. Cells (0.3×10^6 cells in 200 μl) are preincubated with 3 μl of the test drug or DMSO vehicle for 15 min at 37° C. Working solutions of peroxide-free AA (5.5 μM and 110 μM AA for the CHO [hCOX-1] and CHO [COX-2] assays, respectively) are prepared by a 10-fold dilution of a concentrated AA solution in ethanol into HBSS containing 15 mM HEPES, pH 7.4. Cells are then challenged in the presence or absence of drug with the AA/HBSS solution to yield a final concentration of 0.5 μM AA in the CHO[hCOX-1] assay and a final concentration of 10 μM AA in the CHO[hCOX-2] assay. The reaction is terminated by the addition of 10 μl 1 N HCl followed by neutralization with 20 μl of 0.5 N NaOH. The samples are centrifuged at 300 x g at 4° C. for 10 min, and an aliquot of the clarified supernatant is appropriately diluted for the determination of PGE2 levels using an enzyme-linked immunoassay for PGE2 (Correlate PGE2 enzyme immunoassay kit, Assay Designs, Inc.). Cyclooxygenase activity in the absence of test compounds is determined as the difference in PGE2 levels of cells challenged with arachidonic acid versus the PGE2 levels in cells mock-challenged with ethanol vehicle. Inhibition of PGE2 synthesis by test compounds is calculated as a percentage of the activity in the presence of drug versus the activity in the positive control samples.
Compounds of the present invention are inhibitors of COX-2 and are thereby useful in the treatment of COX-2 mediated diseases as enumerated above. The activities of the compounds against cyclooxygenase may be seen in the representative results shown below. In the assay, inhibition is determined by measuring the amount of prostaglandin E2 (PGE2) synthesized in the presence of arachidonic acid, COX-1 or COX-2 and a putative inhibitor. The IC50 values represent the concentration of putative inhibitor required to lower PGE2 synthesis to 50% of that obtained as compared to the uninhibited control.

COX-1 = COX-1 (Homo sapiens, UniProt P23219); experiment: Human whole blood assay, COX-1 (clotting-induced TxB2 production); assay type: cell-based; set-up: platelets in whole blood contain a large amount of the COX-1 enzyme; from tissue; host or cells: fresh human whole blood without anticoagulant, platelets; settings: clotting-induced TxB2, 1 hour at 37° C, read-out: HWB Cox-1 (IC50)
Description: Human whole blood provides a protein and cell-rich milieu appropriate for the study of biochemical efficacy of anti-inflammatory compounds such as selective COX-2 inhibitors. […] This is consistent with the observation that COX-2 inhibitors have no effect on PGE2 production in normal blood. These inhibitors are active only after incubation of human whole blood with LPS, which induces COX-2. This assay can be used to evaluate the inhibitory effect of selective COX-2 inhibitors on PGE2 production. As well, platelets in whole blood contain a large amount of the COX-1 enzyme. Immediately following blood clotting, platelets are activated through a thrombin-mediated mechanism. This reaction results in the production of thromboxane B2 (TXB2) via activation of COX-1. Thus, the effect of test compounds on TxB2 levels following blood clotting can be examined and used as an index for COX-1 activity. Therefore, the degree of selectivity by the test compound can be determined by measuring the levels of PGE2 after LPS induction (COX-2) and TxB2 following blood clotting (COX-1) in the same assay.
B. COX-1 (Clotting-induced TxB2 production)
Fresh blood is collected into vacutainers containing no anticoagulants. […] The tubes are vortexed and incubated at 37° C. for 1 hour to allow blood to clot. At the end of incubation, serum is obtained by centrifugation (12,000 x g for 5 min.). A 100 μL aliquot of serum is mixed with 400 μL of methanol for protein precipitation. The supernatant is obtained and is assayed for TxB2 using a enzyme immunoassay kit (Cayman, #519031) according to the manufacturer's instruction. […]

COX-1, sequence (P23219 24-599): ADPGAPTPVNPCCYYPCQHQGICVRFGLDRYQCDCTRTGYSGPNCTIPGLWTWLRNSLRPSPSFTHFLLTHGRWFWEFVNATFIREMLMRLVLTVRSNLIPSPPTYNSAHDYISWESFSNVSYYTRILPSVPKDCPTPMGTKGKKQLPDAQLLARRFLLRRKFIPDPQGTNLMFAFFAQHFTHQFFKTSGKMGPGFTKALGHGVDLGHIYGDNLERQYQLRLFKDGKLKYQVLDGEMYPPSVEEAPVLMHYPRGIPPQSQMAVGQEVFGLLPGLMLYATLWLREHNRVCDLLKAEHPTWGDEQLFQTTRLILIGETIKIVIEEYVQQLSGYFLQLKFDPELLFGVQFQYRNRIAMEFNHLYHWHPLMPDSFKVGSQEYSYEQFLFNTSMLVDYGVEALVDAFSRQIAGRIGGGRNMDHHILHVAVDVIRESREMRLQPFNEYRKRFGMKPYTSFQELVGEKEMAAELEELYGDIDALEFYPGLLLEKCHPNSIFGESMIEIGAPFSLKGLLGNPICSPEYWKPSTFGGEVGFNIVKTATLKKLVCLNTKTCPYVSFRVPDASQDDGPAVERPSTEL

| IC50 (COX-2) [nM] | IC50 (COX-1) [nM] | Compound |
| --- | --- | --- |
| 20 | 46000 | CC[C@@]1(C)OC(=O)C(c2ccc(F)cc2)=C1c1ccc(S(C)(=O)=O)cc1 [e, (5R)-5-ethyl-3-(4-fluorophenyl)-5-methyl-4-[4-(methylsulfonyl)phenyl]-2,5-dihydro-2-furanone] |
| 194 | > 90000 | CCCC1(C)OC(=O)C(c2ccc(F)cc2)=C1c1ccc(S(C)(=O)=O)cc1 (stereo not drawn) [n, 3-(4-fluorophenyl)-5-methyl-4-[4-(methylsulfonyl)phenyl]-5-propyl-2,5-dihydro-2-furanone] |
| 51 | 76000 | CC[C@@]1(C)OC(=O)C(c2ccc(F)c(F)c2)=C1c1ccc(S(C)(=O)=O)cc1 [h, (5R)-3-(3,4-difluorophenyl)-5-ethyl-5-methyl-4-[4-(methylsulfonyl)phenyl] -2,5-dihydro-2-furanone] |
| 42 | 46400 | CC[C@]1(C)OC(=O)C(c2ccc(F)c(F)c2)=C1c1ccc(S(C)(=O)=O)cc1 [i, (5S)-3-(3,4-difluorophenyl)-5-ethyl-5-methyl-4-[4-(methylsulfonyl)phenyl] -2,5-dihydro-2-furanone] |
| > 5000 |  | CCC1(CC)OC(=O)C(c2ccccc2)=C1c1ccc(S(C)(=O)=O)cc1 [t, 5,5-diethyl-4-[4-(methylsulfonyl)phenyl]-3-phenyl-2,5-dihydro-2-furanone, reference compound] |
| 237 |  | CCCC1(C)OC(=O)C(c2ccc(F)c(F)c2)=C1c1ccc(S(C)(=O)=O)cc1 (stereo not drawn) [p, 3-(3,4-difluorophenyl)-5-methyl-4-[4-(methylsulfonyl)phenyl]-5-propyl-2,5-dihydro-2-furanone] |
| 22 | > 30000 | CCC1(C)OC(=O)C(c2ccc(F)cc2)=C1c1ccc(S(C)(=O)=O)cc1 (stereo not drawn) [c, 5-ethyl-3-(4-fluorophenyl)-5-methyl-4-[4-(methylsulfonyl)phenyl]-2,5-dihydro-2-furanone] |
| > 5000 |  | CCC1(CC)OC(=O)C(c2ccc(F)cc2)=C1c1ccc(S(C)(=O)=O)cc1 [u, 5,5-diethyl-3-(4-fluorophenyl)-4-[4-(methylsulfonyl)phenyl]-2,5-dihydro-2-furanone, reference compound] |
| 57 | 8300 | CC[C@]1(C)OC(=O)C(c2ccc(F)cc2)=C1c1ccc(S(C)(=O)=O)cc1 [d, (5S)-5-ethyl-3-(4-fluorophenyl)-5-methyl-4-[4-(methylsulfonyl)phenyl]-2,5-dihydro-2-furanone] |
| 692 |  | CCCC1(C)OC(=O)C(c2cccc(F)c2)=C1c1ccc(S(C)(=O)=O)cc1 (stereo not drawn) [o, 3-(3-fluorophenyl)-5-methyl-4-[4-(methylsulfonyl)phenyl]-5-propyl-2,5-dihydro-2-furanone] |
| 42 | 86100 | CC1(C)OC(=O)C(c2ccc(F)cc2)=C1c1ccc(S(C)(=O)=O)cc1 [Compound T3-1, 3-(4-fluorophenyl)-5,5-dimethyl-4-[4-(methylsulfonyl)phenyl]-2,5-dihydro-2-furanone, reference compound] |

Source: patent US6133292A, “Diaryl-5-alkyl-5-methyl-2-(5H)-furanones as selective cyclooxygenase-2-inhibitors” (Merck Frosst Canada & Co., priority 1998, dated 2000)
